Measurements: article PMC12017303 (Science Advances, 2025)
In brackets after ≈: the same amount, converted by molar mass.

Columns and labels:
SARS-CoV-2 M^Pro = SARS-CoV-2 M^Pro (Severe acute respiratory syndrome coronavirus 2, UniProt P0DTD1); format: biochemical
[1] = tested on: SARS-CoV-2 mNeon XBB.1.16 in A549-ACE2^h; format: cell-based
[2] = tested on: SARS-CoV-2 mNeon WA1 in A549-ACE2^h; format: cell-based
HCoV Beta OC43 = experiment: microbe, parasite or virus in culture; format: cell-based; conditions: Betacoronavirus 1, OC43
P-gp (MDR1) = experiment: in vitro; conditions: dog; for Papp B→A: MDCK-MDR1; for Papp A→B: MDCK-MDR1, MDCK AB
in vitro [3] = conditions: African green monkey
in vitro [4] = conditions: mouse, microsomes, pH 7.4
in vivo [5] = conditions: male, CD-1, mouse; for AUC(0-t): AUClast; for Vd: Vss
in vitro [6] = conditions: plasma
HAPLN1 = HAPLN1 (Homo sapiens, UniProt P10915); format: binding
CYP2C8 = CYP2C8 (Homo sapiens, UniProt P10632); conditions: human, pH 7.4
[7] = tested on: SARS-CoV-2 WA.1 (icSARS-CoV-2-mNG) in A549-ACE2^h; experiment: microbe, parasite or virus in culture; format: cell-based; conditions: for EC50: Severe acute respiratory syndrome coronavirus 2, read-out: Viral replication in A549-ACE2^h EC50: WA.1
[8] = tested on: SARS-CoV-2 XBB.1.16 in A549-ACE2^h; experiment: microbe, parasite or virus in culture; format: cell-based; conditions: Severe acute respiratory syndrome coronavirus 2, read-out: Viral replication in A549-ACE2^h EC50: XBB.1.16
SARS-CoV-1 M^Pro = SARS-CoV-1 M^Pro (Severe acute respiratory syndrome coronavirus, UniProt P0C6X7); experiment: biochemical
physchem = conditions: pH 7.4, aqueous buffer, kinetic from dmso stock
[9] = tested on: SARS-CoV-2 EG.5.1 in A549-ACE2^h; experiment: microbe, parasite or virus in culture; format: cell-based; conditions: Severe acute respiratory syndrome coronavirus 2, read-out: Viral replication in A549-ACE2^h EC50: EG.5.1
[10] = tested on: SARS-CoV-2 BA.2.86.1 replicon in Vero ACE2 TMPRSS2; experiment: microbe, parasite or virus in culture; format: cell-based; conditions: Severe acute respiratory syndrome coronavirus 2, Vero, read-out: Replicon replication in Vero ACE2 TMPRSS2 EC50: BA.2.86.1
[11] = target: SARS-CoV-2 M^Pro (Cys^145) (Severe acute respiratory syndrome coronavirus 2, UniProt P0DTD1); format: binding
[12] = tested on: SARS-CoV-2 XBB.1.5 in A549-ACE2^h; experiment: microbe, parasite or virus in culture; format: cell-based; conditions: Severe acute respiratory syndrome coronavirus 2, read-out: Viral replication in A549-ACE2^h EC50: XBB.1.5
[13] = tested on: human cytochrome P450 (CYP) isoforms
in vitro [14] = conditions: PAMPA, pH 7.4
in vitro [15] = conditions: human
[16] = tested on: SARS-CoV-2 WA.1 replicon in Vero ACE2 TMPRSS2; experiment: microbe, parasite or virus in culture; format: cell-based; conditions: Severe acute respiratory syndrome coronavirus 2, Vero, read-out: Replicon replication in Vero ACE2 TMPRSS2 EC50: WA.1
[17] = tested on: SARS-CoV-2 BA.2 (omicron); experiment: microbe, parasite or virus in culture; format: cell-based; conditions: Severe acute respiratory syndrome coronavirus 2, Vero C1008
in vivo [18] = conditions: mouse
HCoV Alpha 229E = experiment: organism not typed; format: cell-based, HCoV 229E; conditions: Huh-7
[19] = male, CD-1, mouse, in vivo; for AUClast / Plasma T½: po, 50 mg/kg
SARS-CoV Urbani = experiment: microbe, parasite or virus in culture; format: cell-based; conditions: Severe acute respiratory syndrome coronavirus, Vero C1008
MERS-CoV EMC = experiment: microbe, parasite or virus in culture; format: cell-based; conditions: Middle East respiratory syndrome-related coronavirus, Vero C1008
in vitro [20] = conditions: human, microsomes, pH 7.4
[21] = tested on: panel of 40 receptors, ion channels (including the hERG channel), and serine and cysteine proteases
[22] = human, pH 7.4
[23] = mouse, pH 7.4
[24] = format: physicochemical; conditions: 10 μM
[25] = pH 7.4, plasma protein binding (PPB)

Sequence of CYP2C8 (P10632 whole entry): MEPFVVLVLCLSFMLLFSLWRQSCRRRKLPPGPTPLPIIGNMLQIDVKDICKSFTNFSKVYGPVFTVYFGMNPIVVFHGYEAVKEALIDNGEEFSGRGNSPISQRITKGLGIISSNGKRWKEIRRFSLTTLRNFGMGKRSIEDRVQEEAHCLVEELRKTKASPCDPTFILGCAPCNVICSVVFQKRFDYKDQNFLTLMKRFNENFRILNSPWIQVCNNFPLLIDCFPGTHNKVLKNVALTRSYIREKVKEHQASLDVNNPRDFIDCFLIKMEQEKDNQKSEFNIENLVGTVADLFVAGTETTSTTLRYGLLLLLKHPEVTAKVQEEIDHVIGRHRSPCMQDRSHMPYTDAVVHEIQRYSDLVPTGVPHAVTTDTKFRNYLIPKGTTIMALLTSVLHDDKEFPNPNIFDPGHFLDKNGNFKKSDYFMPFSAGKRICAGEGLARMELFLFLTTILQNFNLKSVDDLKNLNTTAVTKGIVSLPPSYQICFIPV
Sequence of HAPLN1 (P10915 16-354): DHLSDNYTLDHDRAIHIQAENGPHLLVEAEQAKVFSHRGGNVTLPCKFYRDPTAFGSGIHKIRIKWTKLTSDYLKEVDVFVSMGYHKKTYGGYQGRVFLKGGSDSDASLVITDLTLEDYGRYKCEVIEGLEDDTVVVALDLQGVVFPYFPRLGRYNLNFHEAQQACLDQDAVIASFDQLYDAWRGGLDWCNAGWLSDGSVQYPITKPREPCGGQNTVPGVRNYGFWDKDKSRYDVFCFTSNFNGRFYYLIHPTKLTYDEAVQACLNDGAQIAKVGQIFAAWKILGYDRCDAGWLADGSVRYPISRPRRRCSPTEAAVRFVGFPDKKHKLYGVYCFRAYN

With C#CCn1c(C)c(-n2nnc3ccccc32)c(=O)n(-c2cncc3ccccc23)c1=O [AVI-4516] the “M^Pro activity after dialysis” value (SARS-CoV-2 M^Pro) was “activity was not regained”, the “synergy with molnupiravir (ZIP analysis)” value [1] was “synergy was observed at several concentrations” and the “synergy with molnupiravir (ZIP analysis)” value [2] was “a minor effect was observed in the direction of positive synergy”. It also gave an EC50 (HCoV Beta OC43) of 590 nM, an EC90 (HCoV Beta OC43) of 520 nM and a Papp B→A (P-gp (MDR1)) of 45.2 ×10⁻⁶ cm/s. The Papp A→B (P-gp (MDR1)) was 13.3 ×10⁻⁶ cm/s, the CC50 (in vitro [3]) was greater than 100000 nM and the half-life (in vitro [4]) was greater than 2 h. For the same molecule, the bioavailability (in vivo [5]; F) was 174%, the MRT inf (in vivo [5]; iv, 10 mg/kg) was 0.798 h and the clearance (in vivo [5]; iv, 10 mg/kg) was 29 mL/min/kg. It also gave a half-life (in vivo [5]; iv, 10 mg/kg) of 0.866 h, an AUC(0-inf) (in vivo [5]; iv, 10 mg/kg, AUCINF) of 5740 ng·h/mL and an AUC(0-t) (in vivo [5]; iv, 10 mg/kg) of 5730 ng·h/mL. The Vd (in vivo [5]; iv, 10 mg/kg) was 1.39 L/kg, the bioavailability (in vivo [5]; oral bioavailability (%F)) was greater than 100% and the half-life (in vivo [5]; po, 50 mg/kg) was 4.7 h. For the same molecule, the AUC(0-inf) (in vivo [5]; po, 50 mg/kg, AUCINF) was 69500 ng·h/mL, the AUC(0-inf) (in vivo [5]; po, 50 mg/kg, AUCinf) was 69500 ng·h/mL and the AUC(0-t) (in vivo [5]; po, 50 mg/kg) was 49900 ng·h/mL. It also gave a Cmax (in vivo [5]; po, 50 mg/kg, CMax) of 10100 ng/mL, a Cmax (in vivo [5]; po, 50 mg/kg, Cmax) of 10100 ng/mL and a Tmax (in vivo [5]; po, 50 mg/kg, TMax) of 1 h. For the same molecule, the Tmax (in vivo [5]; po, 50 mg/kg, Tmax) was 1 h, the fraction unbound (in vitro [6]; pH 7.4, PPB) was 0.37 and the fraction unbound (in vitro [6]; [25]) was 0.39. For the same molecule, the “increase in Tm of HAPLN1” value (HAPLN1) was 5.77 °C, the CYP2C8 inhibition (CYP2C8) was ~ 45% and the EC50 [7] was 38 nM. The EC90 ([7]; Severe acute respiratory syndrome coronavirus 2, read-out: cellular 90% effective concentration (EC90)) was 97 nM, the EC50 [8] was 34 nM and the IC50 (SARS-CoV-1 M^Pro) was 55 nM. For the same molecule, the solubility (physchem) was 347 µM (≈ 142 µg/mL), the EC50 [9] was 37 nM and the EC50 [10] was 130 nM. The “covalent adduct by whole protein MS” value [11] was “single modification consistent with the mass of AVI-4516”, the EC50 [12] was 30 nM and the “inhibition across the CYP panel” value ([13]; human, pH 7.4) was no more than 25%. For the same molecule, the Papp (in vitro [14]) was 22.4 ×10⁻⁶ cm/s, the CC50 (in vitro [15]) was greater than 100000 nM and the viability at 100 µM (in vitro [15]) was 90.4%. It also gave an EC50 [16] of 160 nM, an EC50 [17] of 180 nM and an EC90 [17] of 390 nM. For the same molecule, the Kp (in vivo [18]) was roughly 0.05, the EC50 (HCoV Alpha 229E) was 2900 nM and the EC90 (HCoV Alpha 229E) was 3500 nM. For the same molecule, the “Mouse F” value [19] was 57, the “free concentration in plasma” value [19] was 2615 nM and the AUClast [19] was 49900 ng·h/mL. For the same molecule, the “Plasma T½” value [19] was 4.7 h, the EC50 (SARS-CoV Urbani) was 570 nM and the EC90 (SARS-CoV Urbani) was 1000 nM. The EC50 (MERS-CoV EMC) was less than 32 nM, the half-life (in vitro [20]) was greater than 2 h and the “off-target activity across panel, result in words” value [21] was “no substantial inhibition or interference with any of the off-targets”.
With C#CCn1c(-c2ccc(Cl)c(Cl)c2)c(-n2nnc3cc(F)c(F)cc32)c(=O)n(-c2cncc3ccccc23)c1=O [AVI-4694] the “M^Pro activity after dialysis” value (SARS-CoV-2 M^Pro) was “activity was not regained”, the EC50 (HCoV Beta OC43) was 55 nM and the EC90 (HCoV Beta OC43) was 61 nM. The Papp B→A (P-gp (MDR1)) was 13.8 ×10⁻⁶ cm/s, the Papp A→B (P-gp (MDR1)) was 8.2 ×10⁻⁶ cm/s and the half-life (in vitro [4]) was 1.6 h. The bioavailability (in vivo [5]; F) was 63.5%, the MRT inf (in vivo [5]; iv, 10 mg/kg) was 2.6 h and the clearance (in vivo [5]; iv, 10 mg/kg) was 9.37 mL/min/kg. The half-life (in vivo [5]; iv, 10 mg/kg) was 1.72 h, the AUC(0-inf) (in vivo [5]; iv, 10 mg/kg, AUCINF) was 17800 ng·h/mL and the AUC(0-t) (in vivo [5]; iv, 10 mg/kg) was 17300 ng·h/mL. The Vd (in vivo [5]; iv, 10 mg/kg) was 1.46 L/kg, the half-life (in vivo [5]; po, 50 mg/kg) was 1.87 h and the AUC(0-inf) (in vivo [5]; po, 50 mg/kg, AUCINF) was 56500 ng·h/mL. It also gave an AUC(0-inf) (in vivo [5]; po, 50 mg/kg, AUCinf) of 56500 ng·h/mL, an AUC(0-t) (in vivo [5]; po, 50 mg/kg) of 56500 ng·h/mL and a Cmax (in vivo [5]; po, 50 mg/kg, CMax) of 5770 ng/mL. The Cmax (in vivo [5]; po, 50 mg/kg, Cmax) was 5770 ng/mL, the Tmax (in vivo [5]; po, 50 mg/kg, TMax) was 4 h and the Tmax (in vivo [5]; po, 50 mg/kg, Tmax) was 4 h. The fraction unbound (in vitro [6]; pH 7.4, PPB) was 0.003, the fraction unbound (in vitro [6]; [25]) was less than 0.01 and the EC50 [7] was 71 nM. The EC50 [8] was 0.32 nM, the IC50 (SARS-CoV-1 M^Pro) was 66 nM and the solubility (physchem) was 2.4 µM (≈ 1.38 µg/mL). For the same molecule, the EC50 [9] was 0.22 nM, the EC50 [10] was 12 nM and the “covalent adduct by whole protein MS” value [11] was “mass shifts consistent with modification at a single site”. The EC50 [12] was 0.3 nM, the “inhibition of several CYP isoforms” value ([13]; 10 μM) was greater than 50% and the EC50 [16] was 13 nM. For the same molecule, the EC50 [17] was 50 nM, the EC90 [17] was 45 nM and the “HLM T1/2” value [22] was greater than 2 h. The EC50 (HCoV Alpha 229E) was greater than 1600 nM, the EC90 (HCoV Alpha 229E) was greater than 1600 nM and the “Mouse F” value [19] was 64. For the same molecule, the AUClast [19] was 56500 ng·h/mL, the “Plasma T½” value [19] was 1.87 h and the EC50 (SARS-CoV Urbani) was 52 nM. The EC90 (SARS-CoV Urbani) was 91 nM, the “MLM T1/2” value [23] was greater than 2 h and the “particle formation by dynamic light scattering (DLS)” value [24] was “formed particles”. For the same molecule, the EC50 (MERS-CoV EMC) was 45 nM and the “off-target activity across panel, result in words” value [21] was “low-micromolar inhibition of nine enzymes/receptors in the panel”.
